This note sets out measurements from PubChem BioAssay AID328 (DTP/NCI, 2004).

The test concerns BDF1 mice, P388 leukemia ip, median survival T/C. The experiment in a line: NCI In Vivo Anticancer Drug Screen. Data for tumor model P388 Leukemia (intraperitoneal) in B6D2F1 (BDF1) mice. The following applies: endpoint: median survival time, higher = longer survival. A digest of the protocol:
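Compound-treated tumour-bearing mice were compared with vehicle-treated controls. Survival was recorded, and the value is the treated-group measurement divided by the control-group measurement (T/C).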

Setting [1] is: dose: 50.0 mg/kg/injection, schedule: Q01DX009 (ip), vehicle: saline.
The mark [2] stands for this setting: dose: 100.0 mg/kg/injection, schedule: Q01DX009 (ip), vehicle: saline.
The mark [3] stands for this setting: dose: 100.0 mg/kg/injection, schedule: Q04DX003 (ip), vehicle: saline.
The mark [4] stands for this setting: dose: 200.0 mg/kg/injection, schedule: Q01DX009 (ip), vehicle: saline.
[5] abbreviates: dose: 50.0 mg/kg/injection, schedule: Q01DX009 (ip), vehicle: saline with Tween-80.
Setting [6] is: dose: 100.0 mg/kg/injection, schedule: Q01DX009 (ip), vehicle: saline with Tween-80.
[7] abbreviates: dose: 25.0 mg/kg/injection, schedule: Q01DX009 (ip), vehicle: saline sonified.
[8] abbreviates: dose: 100.0 mg/kg/injection, schedule: Q04DX003 (ip), vehicle: saline with Tween-80.
Where [9] appears, read: dose: 200.0 mg/kg/injection, schedule: Q01DX009 (ip), vehicle: saline with Tween-80.
Setting [10] is: dose: 200.0 mg/kg/injection, schedule: Q04DX003 (ip), vehicle: saline with Tween-80.
Where [11] appears, read: dose: 400.0 mg/kg/injection, schedule: Q01DX009 (ip), vehicle: saline with Tween-80.
Setting [12] is: dose: 400.0 mg/kg/injection, schedule: Q04DX003 (ip), vehicle: saline with Tween-80.
[13] abbreviates: dose: 25.0 mg/kg/injection, schedule: Q01DX009 (ip), vehicle: saline with Tween-80.
Where [14] appears, read: dose: 25.0 mg/kg/injection, schedule: Q01DX009 (ip), vehicle: saline.

“And” between values parts separate entries of the source, which are not always exact repeats. Identical values can stand only once. Toxic doses and inconclusive results are not listed.

For `CCCCCC(C)(C)O`, the T/C is 95 % of control under setting [1]; 104 % of control under setting [2]; 112 % of control under setting [3]; 104 % of control under setting [4]; 100 % of control (dose: 200.0 mg/kg/injection, schedule: Q04DX003 (ip), vehicle: saline).
In the case of `O=C=Nc1ccc(CCc2ccc(N=C=O)cc2)cc1`, the T/C is 110 % of control under setting [5] and 120 % of control under setting [6].
Regarding `N=C(N)c1ccc(OCCCOc2ccc(C(=N)N)cc2Br)c(Br)c1`, the T/C is, setting by setting: (dose: 2.2 mg/kg/injection, schedule: Q01DX009 (ip), vehicle: saline) 100 % of control; (dose: 3.3 mg/kg/injection, schedule: Q01DX009 (ip), vehicle: saline) 118 % of control; (dose: 5.0 mg/kg/injection, schedule: Q01DX009 (ip), vehicle: saline) 118 % of control; under setting [7], 122 % of control.
On to `CN(C)CC(C(=O)c1ccc(Br)cc1)C(Br)c1ccccc1` (stereo unspecified), for which the T/C is, setting by setting: (dose: 0.78 mg/kg/injection, schedule: Q01DX009 (ip), vehicle: Klucel (hydroxypropylcellulose) (HPC)) 100 % of control; (dose: 1.56 mg/kg/injection, schedule: Q01DX009 (ip), vehicle: Klucel (hydroxypropylcellulose) (HPC)) 95 % of control; (dose: 3.12 mg/kg/injection, schedule: Q01DX009 (ip), vehicle: Klucel (hydroxypropylcellulose) (HPC)) 108 % of control; (dose: 4.6 mg/kg/injection, schedule: Q01DX009 (ip), vehicle: saline) 113 % of control; (dose: 7.0 mg/kg/injection, schedule: Q01DX009 (ip), vehicle: saline) 118 % of control; (dose: 10.0 mg/kg/injection, schedule: Q01DX009 (ip), vehicle: saline) 109 % of control. For the same compound, the T/C (dose: 14.0 mg/kg/injection, schedule: Q01DX009 (ip), vehicle: saline) was 108 % of control; the T/C (dose: 16.25 mg/kg/injection, schedule: Q04DX003 (ip), vehicle: saline) was 100 % of control; the T/C (dose: 22.0 mg/kg/injection, schedule: Q01DX009 (ip), vehicle: saline) was 108 % of control; the T/C (dose: 32.5 mg/kg/injection, schedule: Q04DX003 (ip), vehicle: saline) is 105 % of control; the T/C (dose: 65.0 mg/kg/injection, schedule: Q04DX003 (ip), vehicle: saline) is 110 % of control.
Turning to `C=CCC(CC)C(=O)Cl` (stereo unspecified), the T/C under setting [6] is 109 % of control; the T/C under setting [8] was 111 % of control; the T/C under setting [9] was 100 % of control; the T/C under setting [10] was 110 % of control; the T/C under setting [11] was 100 % of control; the T/C under setting [12] is 105 % of control and 110 % of control.
`COC(=O)CCCc1c[nH]c2ccccc12`: the T/C is 103 % of control (dose: 100.0 mg/kg/injection, schedule: Q01DX009 (ip), vehicle: other); 94 % of control (dose: 200.0 mg/kg/injection, schedule: Q01DX009 (ip), vehicle: other); 86 % of control (dose: 400.0 mg/kg/injection, schedule: Q01DX009 (ip), vehicle: other).
Consider `CCCc1nn2c(-c3ccccc3)nnc2o1`, for which the T/C was 110 % of control under setting [8], 115 % of control under setting [10] and 110 % of control under setting [12].
Consider `COc1ccc2c(c1)C1(C)CCN(C)CC(C1)C2O` (stereo unspecified), for which the T/C is, setting by setting: under setting [1], 96 % of control; under setting [2], 89 % of control; under setting [4], 92 % of control.
For `O=C(CCCc1ccc(N(CCCl)CCCl)cc1)Nc1ccccc1`, the T/C runs as follows: under setting [7], 109 % of control; (dose: 25.0 mg/kg/injection, schedule: Q04DX003 (ip), vehicle: saline with Tween-80) 120 % of control; (dose: 50.0 mg/kg/injection, schedule: Q01DX009 (ip), vehicle: saline sonified) 100 % of control; (dose: 100.0 mg/kg/injection, schedule: Q01DX009 (ip), vehicle: saline sonified) 113 % of control; under setting [8], 210 % of control.
On to `CC1CC[N-]CC1.CC1CC[N-]CC1.CC1CC[N-]CC1.CC1CC[N-]CC1.O=C([O-])C(=O)[O-].O=C([O-])C(=O)[O-].[Nb+5].[O-][O-].[O-][O-].[Pt+4]`, for which the T/C is, setting by setting: (dose: 0.39 mg/kg/injection, schedule: Q01DX009 (ip), vehicle: saline) 106 % of control; (dose: 0.78 mg/kg/injection, schedule: Q01DX009 (ip), vehicle: saline) 102 % of control; (dose: 1.56 mg/kg/injection, schedule: Q01DX009 (ip), vehicle: saline) 115 % of control; (dose: 3.12 mg/kg/injection, schedule: Q01DX009 (ip), vehicle: saline) 102 % of control.
Regarding `CCOC(=O)c1ccc(OP(=O)(N(C)C)N(C)C)cc1`, the T/C is 101 % of control (dose: 12.5 mg/kg/injection, schedule: Q01DX009 (ip), vehicle: saline with Tween-80); 110 % of control under setting [13]; 100 % of control and 119 % of control under setting [5].
On to `CC1CCCCN1CCCO` (stereo unspecified), for which the T/C reads like this: under setting [14], 104 % of control; under setting [1], 108 % of control; (dose: 50.0 mg/kg/injection, schedule: Q04DX003 (ip), vehicle: saline) 92 % of control; under setting [2], 112 % of control; under setting [3], 96 % of control.
Turning to `COc1cc(C=Nc2ccc3c(c2)Cc2ccccc2-3)ccc1O`, the T/C by setting is: (dose: 50.0 mg/kg/injection, schedule: Q04DX003 (ip), vehicle: saline sonified) 104 % of control; (dose: 200.0 mg/kg/injection, schedule: Q04DX003 (ip), vehicle: saline sonified) 95 % of control.
Consider `Cc1cnc(O[Si](C)(C)C)nc1O[Si](C)(C)C`, for which the T/C is, setting by setting: under setting [6], 100 % of control; under setting [9], 91 % of control; under setting [11], 116 % of control.
In the case of `COC(=O)c1cncc(C(=O)OC)c1`, the T/C runs as follows: under setting [8], 100 % of control; (dose: 176.0 mg/kg/injection, schedule: Q04DX003 (ip), vehicle: saline with Tween-80) 100 % of control; under setting [10], 95 % of control; (dose: 264.0 mg/kg/injection, schedule: Q04DX003 (ip), vehicle: saline with Tween-80) 100 % of control; under setting [12], 100 % of control.
With `Cc1nc(OCc2ccccc2)c(C(=O)OCc2ccccc2)nc1C`, the T/C under setting [13] was 100 % of control; the T/C under setting [5] is 106 % of control and 121 % of control; the T/C under setting [6] is 106 % of control and 108 % of control; the T/C under setting [8] was 94 % of control; the T/C under setting [9] was 100 % of control and 101 % of control; the T/C under setting [10] is 91 % of control. In addition, the T/C under setting [11] is 97 % of control and 124 % of control; the T/C under setting [12] is 100 % of control; the T/C (dose: 500.0 mg/kg/injection, schedule: Q01DX009 (ip), vehicle: saline with Tween-80) is 106 % of control.
Turning to `CCN(Cc1ccccc1)c1ccc(/C=C/c2ccnc3ccccc23)cc1`, the T/C under setting [5] was 100 % of control, the T/C under setting [6] is 90 % of control and the T/C under setting [9] is 108 % of control.
With `Cc1ccc(NS(=O)(=O)c2ccccc2)nc1`, the T/C is, setting by setting: under setting [8], 112 % of control; under setting [10], 116 % of control; under setting [12], 96 % of control.
In the case of `CCOC(=O)CC(=O)N/N=C(/C)C(=O)OCC`, the T/C by setting is: under setting [6], 108 % of control; under setting [8], 88 % of control; under setting [9], 99 % of control; under setting [10], 97 % of control; under setting [12], 111 % of control.
Consider `CC(=O)Nc1ccc(N2CCN=N2)cc1`, for which the T/C (dose: 12.5 mg/kg/injection, schedule: Q01DX009 (ip), vehicle: saline) is 110 % of control; the T/C under setting [14] is 95 % of control; the T/C under setting [1] was 105 % of control; the T/C (dose: 75.0 mg/kg/injection, schedule: Q01DX009 (ip), vehicle: Klucel (hydroxypropylcellulose) (HPC)) was 104 % of control.
For `COc1ccc(C(=S)N2CCN(c3ccccc3)CC2)cc1`, the T/C runs as follows: under setting [5], 95 % of control; under setting [6], 100 % of control; under setting [9], 95 % of control.
Consider `CC(=O)Nc1ccc2c([N+](=O)[O-])cccc2c1-c1c(NC(C)=O)ccc2c([N+](=O)[O-])cccc12`, for which the T/C by setting is: (dose: 100.0 mg/kg/injection, schedule: Q01DX009 (ip), vehicle: Klucel (hydroxypropylcellulose) (HPC)) 110 % of control; (dose: 100.0 mg/kg/injection, schedule: Q04DX003 (ip), vehicle: Klucel (hydroxypropylcellulose) (HPC)) 109 % of control; (dose: 200.0 mg/kg/injection, schedule: Q04DX003 (ip), vehicle: Klucel (hydroxypropylcellulose) (HPC)) 100 % of control; (dose: 400.0 mg/kg/injection, schedule: Q01DX009 (ip), vehicle: Klucel (hydroxypropylcellulose) (HPC)) 95 % of control; (dose: 400.0 mg/kg/injection, schedule: Q04DX003 (ip), vehicle: Klucel (hydroxypropylcellulose) (HPC)) 100 % of control.
